Consider 4 substances from PMC11669939, “Impairing protein–protein interactions in an essential tRNA modification complex: An innovative antimicrobial strategy against Pseudomonas aeruginosa” (Journal of Peptide Science, 2024).

For data set [1], the target named is YeaZ protein from P. aeruginosa PAO1, recombinant His-tagged (P. aeruginosa PAO1). Put plainly: SEC; analytical, Superdex75 Increase 10/300 GL, Hepes 50 mM pH 7.4, NaCl 500 mM, 10% glycerol; YeaZ 0.5 mg/ml (2% DMSO as control); peptide at 200 μM. (In general: Size exclusion chromatography separates by hydrodynamic size, large species first.)
For data set [2] the following is noted: cited from earlier work. From the text: P. aeruginosa (PAE) is a Gram‐negative bacterium that has been ranked by WHO as one out of three pathogens with the highest global priority for the development of novel effective antibacterials.[17] PAE is a major cause of both acute and chronic lung infections, which develop in up to 60%–70% of cystic fibrosis (CF) patients, often leading to a more rapid decline of lung function that turns into greater morbidity and mortality.[18], [19], [20] The misuse of classical antibiotics, whose mechanism of action is usually based on the interaction with a well‐defined ligand binding site, led to an ev ... || These observations supported our hypothesis that PMP1 should be able to bind to YeaZ and consequently reduce its ability to form protein complexes, thus impairing its function. […] Indeed, the PMP2 peptide derives from the PMP1 sequence RIAIGVVQGLAFAL (Arg73‐Leu86) and thus contains the four hot ...

The target in data set [3] is YeaZ. Put plainly: Microscale thermophoresis (MST) assay. In kind it is binding, Pseudomonas aeruginosa. As to conditions: 50 nM RED‐NHS labeled YeaZ, Hepes 50 mM pH 7.4, NaCl 500 mM, 10% glycerol, 0.05% Tween20, 24°C, 650 nm, triplicates; saturation plateau not reached, precise value not calculable. The protocol: Microscale thermophoresis (MST) experiments were performed using a Monolith X apparatus (NanoTemper Technologies GmbH, Munich, Germany) and analyzed with the MO. Affinity Analysis software (NanoTemper Technologies GmbH). Briefly, YeaZ was labeled with the red fluorescent dye RED‐NHS 2° generation according to manufacturer instructions. MST measurements were performed in triplicates at 24°C on in Hepes 50 mM pH 7.4, NaCl 500 mM, 10% glycerol, and 0.05% Tween20, using premium‐treated glass capillaries and at a fixed concentration of 50 nM YeaZ. Results were merged and analyzed.
(§1) PMP3 was then dissolved to 1mM in MilliQ water and evaluated in vitro in ITF assays. […] To further investigate the binding with PMP3, we performed a concentration‐response curve increasing the amounts of peptide. […] We thus performed an MST assay exploiting the perturbation of thermal diffusion at 650 nm plotted against the peptide concentration. The MO.

Data set [4] in a line: Circular dichroism analysis. It is filed as physicochemical. To be noted: 20 μM, 20°C. How it is done:
CD spectra were acquired on a JASCO J‐715 spectropolarimeter in a 1‐mm quartz cuvette, under N2, between 260 and 185 nm, at 20°C with 0.5 nm intervals, and 3 measurements were accumulated (settings: 100 mdeg sensitivity, continuous scan mode, 50 nm/min scan speed, 2 s response, bandwidth 1.0 nm). The resulting signal was converted from ellipticity (mdeg) to molar ellipticity [Q] in deg · cm^2 · dmol^−1. Peptides were solubilized in 100% MilliQ water or 1:1 water/TFE at 20 μM concentration. The helical propensity [R] was calculated using the R‐value, i.e. the ratio between molar ellipticity values at 222 and 207 nm, where R = 1 is defined as a reference for an ideal α‐helix.
Background: Circular dichroism is the unequal absorption of left and right circularly polarised light.

For data set [5], the system named is YeaZ. In words: Intrinsic tryptophan fluorescence (ITF) binding assay. On the set-up: species or system Pseudomonas aeruginosa. How it is done: (§2) Briefly, the YeaZ protein was produced in E. coli M15[pREP4] strain using a pQE30‐PaYeaZ plasmid. Cells were grown in LB medium at 37°C till the OD600 reached 0.6, then the protein expression was induced by isopropyl‐β‐D‐thiogalactoside (IPTG) at a final concentration of 0.1 mM for 5 h at 30°C. After cell collection, the pellet was resuspended in a lysis buffer containing 50 mM phosphate buffer, 150 mM NaCl, and 10 mM imidazole, pH 7.4. Cells were subsequently disrupted by a French press disruptor (20 bar pressure), and one tablet of protease inhibitor (Roche), 10 mg/ml DNase I, and 5 mg/ml Ribonuclease A were added to the solution. After centrifugation at 18,000 rpm for 45 min, the supernatant was collected, filtered, and loaded onto a Ni‐NTA Superflow (GE Healthcare Life Science). YeaZ was further purified using a Superdex 75 gel filtration column (GE Healthcare Life Science) in buffer 50 mM Hepes pH 7.4, 150 mM NaCl at a concentration of 0.5 mg/ml, in which freshly purified protein exists as a monomer in solution, and stored at −80°C.
Spectrofluorometric assays were performed on a Varian Cary Eclipse fluorescence spectrophotometer (Agilent Technologies) at 20°C. YeaZ was used at a final concentration of 0.065 mg/ml in buffer Hepes 50 mM pH 7.4, NaCl 500 mM, 10% glycerol (with 2% v/v DMSO as control), while the peptides were used at a final concentration of 200 μM. We used an excitation wavelength of 280 nm and registered the fluorescence emission spectra between 300 and 400 nm. Measures were performed in triplicates.
To evaluate the binding of PMP2 in vitro, the recombinant His‐tagged YeaZ protein from PAE PAO1 was produced in E. coli and purified with final purity and yield values adequate for the binding studies. Compound PMP2 was dissolved to 10mM with 100% DMSO and tested in in vitro assays at a final concentration of 200 μM (corresponding to a DMSO concentration of 2%). The interaction with the protein was first evaluated by exploiting the intrinsic fluorescence of the tryptophan residues (ITF) contained in the protein's amino acid sequence. […] Analytical size exclusion chromatography (SEC) was then run to evaluate the peptide's ability to disrupt or interfere with the formation of the homodimers. The YeaZ protein alone eluted at a volume corresponding mainly to its dimeric form (estimated molecular weight of 51 kDa of the main peak) and the effect of 2% v/v DMSO was irrelevant.
as §1

The test system of data set [6] is P. aeruginosa PAO1. Put plainly: Bacterial growth inhibition assay, P. aeruginosa PAO1. It is filed as cell-based, Pseudomonas aeruginosa. As to conditions: 3, 10, 30 μM; Mueller Hinton Broth, 37°C, OD595 every 15 min; mean of three independent experiments. The protocol:
(§3) Growth inhibition experiments were performed with P. aeruginosa PAO1 strain[37] and Escherichia coli K‐12 MG1655.[38] Cells were grown overnight in 10 ml of LB medium at 37°C with shaking. Overnight cultures were washed twice with phosphate‐buffered saline (PBS) and inoculated to an optical density at 595 nm (OD595) of 0.05 in 10 ml of Mueller Hinton Broth (Sigma‐Aldrich). Aliquots (200 μl) of inoculated medium were distributed in triplicate (technical replicates) in a 96‐Well Cellstar® suspension culture plate (Greiner Bio‐One) and incubated in a Sunrise microplate reader (Tecan Group) at 37°C with constant orbital shaking and real‐time OD595 measurements every 15 min. Three final peptide concentrations were tested: 3, 10, and 30 μM, respectively. Controls were made by adding sterilized water, in the same amount of the added peptide volumes. Three independent replicates were performed. Data were reported by plotting, at each time point, the mean OD595 values of the three replicates with error bars indicating Standard Error of Mean (SEM).

Data set [7] deals with Escherichia coli K‐12 MG1655. In words: Bacterial growth inhibition assay, E. coli MG1655. In kind it is cell-based. As to conditions: 3, 10, 30 μM; Mueller Hinton Broth, 37°C, OD595 every 15 min; mean of three independent experiments. How it is done:
as §3

Data set [8] is described as follows: Solubility, hydrophobicity and aggregation of the peptides. It is filed as physicochemical.
The subject of data set [9] is YeaZ homodimer. Put plainly: Analytical size exclusion chromatography (SEC). In kind it is binding, Pseudomonas aeruginosa. To be noted: peptide 200 μM, 2% DMSO, YeaZ 0.5 mg/ml. The protocol:
as §2, with “YeaZ was further purified using a Superdex 75 gel filtration column (GE Healthcare Life Science) in buffer 50 mM Hepes pH 7.4, 150 mM NaCl at a concentration of 0.5 mg/ml, in which freshly purified protein exists as a monomer in solution, and stored at −80°C.” left out
To evaluate the binding of PMP2 in vitro, the recombinant His‐tagged YeaZ protein from PAE PAO1 was produced in E. coli and purified with final purity and yield values adequate for the binding studies. […] The interaction with the protein was first evaluated by exploiting the intrinsic fluorescence of the tryptophan residues (ITF) contained in the protein's amino acid sequence. […]

For data set [10] the following is noted: previous work; cited from earlier work. From the text:
Since the PPIs and hot spots involved in the PAE YeaZ homodimer are conserved in the YeaZ/YgjD heterodimer,[21], [25], [26] we hypothesized that PMP1 might also represent a good starting point to target the YeaZ/YgjD interface. In this work, we report our studies focused on the PPIs involved in the formation of the TC‐complex and their possible inhibition by PMP1 derivatives. The final aim was the interference of t^6A37 biosynthesis and, consequently, the achievement of bacterial growth impairment.

One may read the stoichiometry N as a count of units in the complex or per binding partner.

Take “YeaZ protein from P. aeruginosa PAO1, recombinant His-tagged (from UniProt A0A0H2ZEW0 1-226) (natural protein)”: in data set [1], the stoichiometry N is 2.
As for AIAIGVVQGLAFAL [PMP1], in data set [2], the hydrophobicity result is listed as “too hydrophobic”.
“AIAIGVVQGLAFAL‐GG‐[R‐Ahx‐R]4‐Ahx‐β‐Ala [PMP3]”: the “Kd (MST)” value in data set [3] is recorded as “low micromolar”. The results for the “secondary structure by CD” value in [4] (1:1 water/TFE) and in data set [4] (100% MilliQ water) were “a clear α‐helix conformation was observed” and “did not show any particular secondary structure”, respectively. The “helical propensity R” value in [4] (ratio of molar ellipticity at 222 and 207 nm (R = 1 ideal α‐helix), 1:1 water/TFE) is given as 0.78. Moreover, in data set [5] (above a concentration threshold, at 310–340 nm, prevented concentration‐response evaluation), the “intrinsic fluorescence of the peptide” value is “higher than the intrinsic fluorescence of the YeaZ protein”. Moreover, the “fluorescence intensity of YeaZ in presence of peptide (ITF)” value in [5] (peptide 200 μM, from 1mM in MilliQ water, YeaZ 0.065 mg/ml, Hepes 50 mM pH 7.4, NaCl 500 mM, 10% glycerol, 20°C, excitation 280 nm, triplicates) is “reduction of the fluorescence intensity”. Moreover, the “shift of emission towards shorter wavelengths (ITF), wavelength” value in [5] (peptide 200 μM, from 1mM in MilliQ water, YeaZ 0.065 mg/ml, pH 7.4, 20°C, slight shift) is listed as “around 330 nm”. Further, in data set [6], the “growth inhibition of PAE PAO1” value was “significant concentration‐dependent decrease in the growth rates”. The “growth inhibition of E. coli MG1655” value in data set [7] was “much weaker than those observed for PAO1”.
As for AIAIGVVQGLAFAL‐GG‐KKKG [PMP2], the “self‐assembly” value in [2] (by fine‐tuning of the environmental conditions) was “capable of self‐assembling in helical nanofibers and 2D sheets as well as forming hydrogels”. Further, the solubility entry in [8] (any tested solvent (H2O, 100% DMSO, 10 mM NaOH)) is listed as “poor solubility”. Also, the aggregation result in [8] (in solution at higher concentrations, prevented evaluation of a dose–response constant) is given as “formation of aggregates in solution at higher concentrations”. In addition, the “fluorescence emission of YeaZ in presence of peptide (ITF)” value in data set [5] (peptide 200 μM, 2% DMSO, YeaZ 0.065 mg/ml, Hepes 50 mM pH 7.4, NaCl 500 mM, 10% glycerol, 20°C, excitation 280 nm, emission 300-400 nm, triplicates) is reported as “decreased fluorescence emission spectrum compared to the protein alone”. Further, the “growth inhibition of PAE PAO1” value in data set [6] is recorded as “no effect of growth inhibition could be observed”. Besides, the “estimated molecular weight of the YeaZ dimeric peak (SEC)” value in [9] (Hepes 50 mM pH 7.4, NaCl 500 mM, 10% glycerol, Superdex75 Increase 10/300, YeaZ alone 51 kDa) was 49 kDa. Moreover, the “effect on the YeaZ dimeric peak (SEC)” value in data set [9] (pH 7.4) was “slight shift of the dimeric peak towards a smaller molecular weight”. In addition, in data set [10], the “helicity outside the protein environment” value was “maintain helicity outside the protein environment”. Further, the “growth inhibition of E. coli MG1655” value in data set [7] is “no effect of growth inhibition could be observed”.
